The source of these data is PMC5749684, “Tetrahydrocarbazoles are a novel class of potent P-type ATPase inhibitors with antifungal activity” (PLoS ONE, 2018).

In one test the target is T1, Candida albicans Pma1 (Candida albicans, UniProt P28877).
T1 construct: endogenous in cells
In words: ATP hydrolysis inhibition, C. albicans Pma1. The note with it: racemic compounds, n = 3. In kind it is biochemical. The method, then: Candida albicans microsomes were prepared from 100 mL overnight culture in YPD (10 g/L yeast extract (BD, Sparks, MD), 20 g/L Bacto peptone (BD, Sparks, MD), 20 g/L D-(+)-glucose), transferred to 1 L YPD and grown at RT, 150 rpm, for 7 h. Cells were harvested and washed in deionized water followed by centrifugation at 3360 x g. The cells were glucose-activated by the addition of 10% (w/v) D-(+)-glucose for 10 minutes while shaking. This suspension was then centrifuged at 3,360 x g for 3 minutes and 60–80 g of cells (wet weight) were resuspended in homogenization buffer (50 g/L glucose, 28.3% (v/v) glycerol, 100 mM Tris-HCl pH 7.25, 10 mM EDTA pH 8.0, 50 mM KCl, 1 mM DTT, 200 μM PMSF, 2 μg/ml Pepstatin A), and disrupted with 165 g glassbeads (500 μm diameter) in a BeadBeater (Biospec Product, Bartlesville, OK). The disrupted cells were centrifuged at 4°C for 5 and 15 minutes at 1,400 x g and 12,000 x g, respectively. The supernatant was collected and centrifuged at 251,000 x g for 1 h, and the membrane fraction was collected and homogenized in GTEK20 buffer (20% (v/v) glycerol, 10 mM Tris-HCl pH 7.25, 25 mM KCl, 0.5 mM EDTA pH 8.0, 1 mM DTT, 0.2 mM PMSF, 2 μg/mL Pepstatin A).
(§1) ATPase activity was determined by measuring the amount of liberated phosphate from ATP hydrolysis. The ATPase assay was performed in 96 well plates in a final reaction volume of 60 μL. 0.1–0.2 μg/well of DOC extracted SERCA membrane or the Na^+,K^+-ATPase was used, while 1–2.5 μg/well was used of the Pma1 membrane preparation. Reactions, including protein membrane preparation and various concentrations of exogenously added compounds, were conducted in the following buffers; Pma1 buffer: 17.5 mM MOPS-NaOH pH 7, 7 mM MgSO4, 44 mM KNO3 (vacuolar ATPase inhibitor), 22 mM NaN3 (mitochondrial ATPase inhibitor), 0.22 mM Na2MoO4 (acid phosphatase inhibitor); SERCA buffer: 9 mM MOPS-NaOH pH 7, 2.7 mM MgCl2, 0.1 mM CaCl2 and 72 mM KCl. Na^+,K^+-ATPase buffer: 30 mM MOPS-NaOH pH 7, 40 mM NaCl, 4 mM MgCl2 and 20 mM KCl. Reactions were initiated by the addition of Na-ATP to a final concentration of 2.5 mM (Pma1 and Na^+,K^+-ATPase) or 5 mM (SERCA), followed by 30 minutes incubation at 30°C. […] Absorption was measured at 860 nm after additional 30 minutes incubation at RT.

The subject of the next test is Candida albicans SC5314. Briefly: Fungal growth inhibition, C. albicans SC5314. In kind it is cell-based. The note with it: MIC defined as 50% growth inhibition, 24 h, n = 3–6. The text has this: Fungal isolates were purchased from American Type Culture Collection, except for C. glabrata strain Cg003, which was kindly provided by Julius Subik, Comenius University in Bratislava, Slovak Republic. Cg003 is a clinical isolate, characterized to be resistant to fluconazole and itraconazole due to overexpression of the multidrug resistance efflux pumps Cdr1p and Cdr2p. Saccharomyces cerevisiae (ATCC 9763), Candida albicans (ATCC 90028), Candida albicans (SC5314), Candida glabrata (ATCC 90030), Candida glabrata (Cg003) and Candida krusei (ATCC 6258) were grown in Sabouraud broth (40 g/L D-glucose, 10 g/L peptone, pH 5.6) or YPD (10 g/L yeast extract, 20 g/L Bacto-peptone, 20 g/L glucose) medium to mid log phase, aliquoted into 20% (v/v) glycerol and cryopreserved as stocks at -80°C. For each growth assay, cells from these stocks were diluted in sterile water to OD600 = 0.025, which corresponds to a final starting inoculum of 0.5–2.5 x 10^5 CFU/mL. Growth assays were carried out by pipetting 3 μL compound dissolved in DMSO, 100 μL cell suspension and 97 μL 2 x RPMI media (20.8 g/L RPMI-1640 (Sigma-Aldrich catalog number R6504) 330 mM MOPS, 36 g/L glucose) into a microtiter plate and incubating for 24 h at 34°C, followed by OD measurement at 490 nm. The minimum inhibitory concentration (MIC) was defined as 50% growth inhibition of the microorganism as this measurement best represented the antifungal activity of the compounds. Standard errors were typically below 5%.

Another test deals with T2, Mammalian SERCA (Oryctolagus cuniculus, UniProt P04191).
T2 construct: Ca^2+ ATPase was provided in SR membranes purified by extraction with a low concentration of deoxycholate (DOC); from tissue; host or cells: sarcoplasmic reticulum membranes (rabbit)
Briefly: ATP hydrolysis inhibition, SERCA. Format: biochemical. The settings on record: rabbit SERCA, racemic compounds, n = 3.
From the text: All membrane batches were validated by determining ATPase activity, pH optimum and orthovanadate sensitivity. Sarco/endoplasmatic reticulum (SR) Ca^2+ ATPase was provided in SR membranes purified by extraction with a low concentration of deoxycholate (DOC) and was kindly provided by Claus E. Olesen and Jesper V. Møller, Aarhus University and prepared as described in [43]. The pig kidney Na^+,K^+-ATPase purification included a mild SDS treatment of isolated microsomes followed by a washing step and was kindly provided by Natalya Fedosova, Aarhus University and prepared as described in [44].
as §1

In the next test the test system is HepG2 cells. Briefly: Hep G2 viability assay (XTT). Format: cell-based, human. The settings on record: for EC50: Homo sapiens, HepG2 proliferation, 72 h, XTT; for Fungal growth inhibition versus HepG2 proliferation (in words): comparison of MIC and HepG2 EC50. The method, then: In each well of a 96 well tissue culture plate (Greiner, catalog number GR-655180) 10,000 human hepatocyte HepG2 cells (Sigma-Aldrich, catalog number 85011430) were plated in 200 μL growth media (EMEM (Sigma-Aldrich, catalog number M2279), 2 mM L-Glutamine (Biological Industries, catalog number 03-020-1B), 1% non-essential amino acids (Biosera, catalog number XC-E1154/100), 10% fetal bovine serum (Biological Industries, catalog number BI-04-007-1A)), and incubated overnight at 37°C and 5% CO2. The following day, fresh growth media plus 2 μL compound in DMSO was added. The plate was incubated for a further 72 h at 37°C and 5% CO2. The media was replaced with 100 μL freshly prepared 0.5 mg/mL XTT sodium salt solution (Sigma-Aldrich, catalog number X4251) in RPMI-1640 (Sigma-Aldrich, catalog number R7509) with 3.83 μg/mL phenazine methosulfate (Sigma-Aldrich, catalog number P9625) and incubated 2–3 h at 37°C and 5% CO2. The color reaction was measured on a Victor X5 plate reader (Perkin-Elmer) at OD450, and the half maximal effective concentration (EC50) was calculated indicating the potency of tetrahydrocarbazole derivatives to inhibit HepG2 cell growth. Tamoxifen (Sigma-Aldrich, catalog number 85256) was used as a positive control compound while DMSO served as a negative control.
In general terms: Formazan colour is commonly taken as a measure of viable cells.

Converted amounts (≈) assume the structure as drawn. Bounds are passed on as bounds.

T1 sequence (P28877 whole entry): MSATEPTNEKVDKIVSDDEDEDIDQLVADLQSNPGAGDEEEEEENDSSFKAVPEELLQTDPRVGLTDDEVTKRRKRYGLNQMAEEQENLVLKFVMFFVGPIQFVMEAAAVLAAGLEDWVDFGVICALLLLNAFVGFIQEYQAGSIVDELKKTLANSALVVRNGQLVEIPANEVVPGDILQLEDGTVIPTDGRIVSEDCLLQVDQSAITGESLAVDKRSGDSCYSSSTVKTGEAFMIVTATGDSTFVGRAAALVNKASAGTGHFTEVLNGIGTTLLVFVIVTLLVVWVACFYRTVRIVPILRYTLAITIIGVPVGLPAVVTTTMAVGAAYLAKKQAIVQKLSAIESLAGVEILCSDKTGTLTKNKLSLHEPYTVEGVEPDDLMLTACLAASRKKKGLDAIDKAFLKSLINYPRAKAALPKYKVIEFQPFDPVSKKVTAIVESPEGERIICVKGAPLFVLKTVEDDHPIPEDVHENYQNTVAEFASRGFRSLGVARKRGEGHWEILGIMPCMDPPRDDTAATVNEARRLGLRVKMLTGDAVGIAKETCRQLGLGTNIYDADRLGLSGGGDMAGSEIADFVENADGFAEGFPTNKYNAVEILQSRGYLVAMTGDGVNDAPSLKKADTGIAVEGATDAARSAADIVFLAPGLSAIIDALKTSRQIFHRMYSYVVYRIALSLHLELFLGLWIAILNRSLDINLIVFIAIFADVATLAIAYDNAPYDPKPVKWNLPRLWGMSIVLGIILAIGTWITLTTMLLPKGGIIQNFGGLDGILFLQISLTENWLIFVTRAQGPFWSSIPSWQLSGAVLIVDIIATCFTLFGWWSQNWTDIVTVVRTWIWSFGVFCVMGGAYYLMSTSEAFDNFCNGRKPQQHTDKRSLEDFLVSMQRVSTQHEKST
T2 sequence (P04191 1-994 isoform P04191-2): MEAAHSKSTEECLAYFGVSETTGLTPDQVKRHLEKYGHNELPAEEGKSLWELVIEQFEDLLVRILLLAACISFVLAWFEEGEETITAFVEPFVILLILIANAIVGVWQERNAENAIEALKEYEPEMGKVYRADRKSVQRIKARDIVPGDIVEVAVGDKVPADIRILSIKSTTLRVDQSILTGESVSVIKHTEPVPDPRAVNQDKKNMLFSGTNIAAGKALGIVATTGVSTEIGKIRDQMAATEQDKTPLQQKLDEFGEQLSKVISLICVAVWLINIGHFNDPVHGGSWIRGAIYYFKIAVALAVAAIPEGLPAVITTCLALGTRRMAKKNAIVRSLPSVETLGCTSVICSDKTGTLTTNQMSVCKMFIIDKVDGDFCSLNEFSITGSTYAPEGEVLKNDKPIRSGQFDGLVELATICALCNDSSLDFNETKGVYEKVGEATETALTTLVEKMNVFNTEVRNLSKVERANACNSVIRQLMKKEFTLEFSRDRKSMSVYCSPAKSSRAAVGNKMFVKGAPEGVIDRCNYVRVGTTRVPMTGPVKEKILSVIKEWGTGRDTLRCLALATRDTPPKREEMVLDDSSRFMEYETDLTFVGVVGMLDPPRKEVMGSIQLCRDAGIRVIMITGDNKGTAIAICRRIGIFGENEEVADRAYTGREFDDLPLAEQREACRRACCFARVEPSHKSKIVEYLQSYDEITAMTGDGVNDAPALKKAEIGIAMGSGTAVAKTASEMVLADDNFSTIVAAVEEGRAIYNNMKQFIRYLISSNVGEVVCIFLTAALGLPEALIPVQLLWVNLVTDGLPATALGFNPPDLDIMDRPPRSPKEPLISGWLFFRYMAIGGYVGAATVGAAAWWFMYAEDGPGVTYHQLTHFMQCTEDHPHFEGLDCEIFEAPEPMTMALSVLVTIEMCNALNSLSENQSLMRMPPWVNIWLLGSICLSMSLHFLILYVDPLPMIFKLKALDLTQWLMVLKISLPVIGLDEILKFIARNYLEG

For `NC1CCCc2c1[nH]c1cc(OC(F)(F)F)ccc21` (stereo not drawn) [Compound 4], at Candida albicans Pma1, inhibition was half-maximal at 46 ± 14.5 µM (IC50). For the same compound, the MIC (commonly the smallest concentration in the dilution series that meets the test's criterion for growth inhibition) against Candida albicans SC5314 stood at 100 ± 43 µM (≈ 27 µg/mL). Besides, the IC50 (in general, the concentration at which inhibition is half-maximal) against Mammalian SERCA stood at 1550 ± 60 nM. In the test with HepG2 cells, the EC50 – broadly, the concentration giving half of the maximal effect – amounted to 3.5 ± 1.87 µM and the “Fungal growth inhibition versus HepG2 proliferation (in words)” value is “more potent at inhibiting HepG2 proliferation than fungal growth”.

In the case of `CN1CCC(NC2CCCc3c2[nH]c2cc(OC(F)(F)F)ccc32)CC1` (stereo not drawn) [Compound 5], the figures for the 50% inhibitory concentration (IC50) against Candida albicans Pma1 and against Mammalian SERCA were 130 ± 32.2 µM and 61700 ± 18800 nM, respectively. In the test with Candida albicans SC5314, 150 µM (≈ 55.1 µg/mL) was the least that counted as inhibitory (MIC). In addition, it took 4.7 ± 3.4 µM to reach a half-maximal effect in the test with HepG2 cells (EC50). In addition, in the test on HepG2 cells, the “Fungal growth inhibition versus HepG2 proliferation (in words)” value is given as “more potent at inhibiting HepG2 proliferation than fungal growth”.

In the case of `FC(F)(F)Oc1ccc2c3c([nH]c2c1)C(NCc1ccc(Cl)cc1)CCC3` (stereo not drawn) [Compound 6], the figures for the IC50 against Candida albicans Pma1 and on Mammalian SERCA were 3.89 ± 1.71 µM and 90 ± 30 nM, respectively. In addition, in the test on Candida albicans SC5314, inhibition of growth (MIC) required 7.5 µM (≈ 2.96 µg/mL). In addition, in the test with HepG2 cells, the EC50 is 16.7 ± 3.54 µM. Besides, the “Fungal growth inhibition versus HepG2 proliferation (in words)” value in the test on HepG2 cells was “inhibited fungal growth more strongly than HepG2 proliferation”.

Take `FC(F)(F)Oc1ccc2c3c([nH]c2c1)C(NCc1ccc(Br)cc1)CCC3` (stereo not drawn) [Compound 7]: the values for the IC50 against Candida albicans Pma1 and on Mammalian SERCA were 2.47 ± 0.26 µM and 110 ± 60 nM, respectively. This compound also showed an MIC against Candida albicans SC5314 of 15 µM (≈ 6.59 µg/mL). Besides, the EC50 in the test with HepG2 cells was found to be 14.9 ± 0.26 µM.

For `FC(F)(F)Oc1ccc2c3c([nH]c2c1)C(NCCOc1ccc(Cl)cc1)CCC3` (stereo not drawn) [Compound 8], the IC50 at Candida albicans Pma1 worked out at 3.77 ± 1.04 µM; against Mammalian SERCA, 260 ± 60 nM. In the test on Candida albicans SC5314, this compound came in with a minimal inhibitory concentration (MIC) of 7.5 µM (≈ 3.19 µg/mL). Moreover, the response with HepG2 cells was half-maximal at 13.6 ± 1.33 µM (EC50). For the same compound, the “Fungal growth inhibition versus HepG2 proliferation (in words)” value in the test with HepG2 cells is “inhibited fungal growth more strongly than HepG2 proliferation”.

As to `FC(F)(F)Oc1ccc2[nH]c3c(c2c1)CCCC3NCc1ccc(-c2ccccn2)cc1` (stereo not drawn) [Compound 9], the half-maximal inhibitory concentration (IC50) on Candida albicans Pma1 turned out to be 5.56 ± 1.55 µM. This compound also yielded an MIC against Candida albicans SC5314 of 7.5 µM (≈ 3.28 µg/mL). The same compound showed an IC50 against Mammalian SERCA of 3270 ± 1890 nM. Moreover, in the test with HepG2 cells, a half-maximal effect (EC50) was put at 12.5 ± 3.68 µM and the “Fungal growth inhibition versus HepG2 proliferation (in words)” value is “inhibited fungal growth more strongly than HepG2 proliferation”.

In turn, `Clc1ccc2[nH]c3c(c2c1)CCCC3NCc1ccc(-c2ccccc2)cc1` (stereo not drawn) [Compound 10] registered an IC50 at Candida albicans Pma1 of 9.7 ± 2.15 µM. The compound also returned an MIC with Candida albicans SC5314 of 6.8 ± 4.6 µM (≈ 2.63 µg/mL). The midpoint of inhibition on Mammalian SERCA, the IC50, lay at 5540 ± 3160 nM. Also, in the test with HepG2 cells, the EC50 came to 18.6 ± 1.12 µM and the “Fungal growth inhibition versus HepG2 proliferation (in words)” value is “inhibited fungal growth more strongly than HepG2 proliferation”.

Turning to `Cn1c2c(c3cc(Cl)ccc31)CCCC2NCc1ccc(-c2ccccc2)cc1` (stereo not drawn) [Compound 11], the IC50 was above 20 µM on Candida albicans Pma1 and above 20000 nM at Mammalian SERCA. The same compound came in with an MIC in the test with Candida albicans SC5314 above 20 µM. This compound yielded an EC50 in the test with HepG2 cells above 20 µM.

Regarding `CN(Cc1ccc(-c2ccccc2)cc1)C1CCCc2c1[nH]c1ccc(Cl)cc21` (stereo not drawn) [Compound 12], the IC50 on Candida albicans Pma1 was above 20 µM; on Mammalian SERCA, above 20000 nM. In the test on Candida albicans SC5314, this compound yielded an MIC above 20 µM. For the same compound, in the test on HepG2 cells, the EC50 is above 20 µM.
